The nature of data set [1]: Kinetic aqueous solubility assay. It counts as physicochemical. As to conditions: aqueous buffer, kinetic from dmso stock, 0.05M potassium phosphate buffer pH 7.4, 250 μM spike, RT. How it is done: Using a 10 mM stock solution of test compound in 100% DMSO, test compounds were spiked into 0.05M potassium phosphate buffer (pH 7.4) at a final concentration of 250 μM. Samples in buffer (n=2 aqueous samples, in 96-well plates) were allowed to equilibrate at RT on an orbital shaker for 30 min (300 rpm) to induce precipitation of test compounds. The appearance of each sample was determined by visual examination and noted (clear, cloudy, precipitate observed etc.). […] The concentration of compound in phosphate buffer filtrate was determined by comparing the UV absorbance peak area of each replicate against that of the calibration standards. […] Compounds of the invention have much improved solubility compared to the reference examples.

A further data set concerns the target T1, hERG channel (Homo sapiens, UniProt Q12809).
T1 construct: expressed in transfected cells
Description: hERG assay (QPatch automated patch clamp, CHO cells). As to conditions: CHO cells expressing hERG, whole-cell patch clamp, 0.003 μM to 10 μM. It counts as cell-based. The source says:
The human ether-a-go-go related gene (hERG) potassium channel (Kv11.1) contributes to human cardiac action potential repolarisation. Inhibition of hERG channels can prolong the human cardiac action potential, resulting in QTc prolongation and potentially lethal arrhythmias (e.g. Torsade de Pointes).
Test samples were screened against the hERG channel on a QPatch 48 gigaseal automated patch clamp platform, using a Chinese Hamster Ovary (CHO) cell line stably expressing the human ether-á-go-go related gene, which encodes the hERG channel. All recordings were made in the conventional whole-cell configuration and performed at RT ([…]) using standard single hole chips (Rchip 1.5-4M0). Series resistance (4-15Mc) was compensated by >80%. Currents were elicited from a holding potential of −90 mV using the industry standard “^+40/−40” voltage protocol, which was applied at a stimulus frequency of 0.1 Hz. On achieving the whole-cell configuration, vehicle (0.1% DMSO v/v in external recording solution) was applied to each cell in two bolus additions with a 2 min recording period between each addition. Following the vehicle period, eight increasing concentrations of test sample were applied from 0.003 μM to 10 μM as a single bolus addition per test concentration, and the effects on hERG tail current amplitude measured during the 2 min recording period. Each eight-point concentration-response curve was constructed using cumulative single sample additions of each concentration to the same cell. The positive control used in this study was verapamil hydrochloride (Tocris, Cat #0654, Batch #5A/61673) and prepared to a stock concentration of 10 mM in 100% DMSO and kept as frozen aliquots.
Data analysis: All cells passing the QC parameters (i.e. >200 pA outward current, membrane resistance and rundown) are selected as ‘passed QC’ using the QPatch software, which then calculates the mean peak current for the last three sweeps at the end of each concentration application period from the cursor positions defined. Percent inhibition is calculated for each test concentration application period as the reduction in mean cursor value (peak current or charge) relative to the cursor value measured at the end of the control (i.e. vehicle) period. The percent inhibition values from each cell are used to construct concentration-response curves employing a four parametric logistic fit with 0 and 100% inhibition levels fixed at very low and very high concentrations, respectively, and a free Hill slope factor. The IC50 (50% inhibitory concentration) and Hill coefficient are then determined, but only data from cells with Hill slopes within 0.5>nH<2.0 are included. The IC50 data reported below represents the mean (and S.D.) of at least three separate cells (N≥3). […] Compounds of the invention show reduced hERG inhibitory activity compared to the reference examples.

In brackets after ≈: the same amount, converted by molar mass.

T1 sequence (Q12809 whole entry): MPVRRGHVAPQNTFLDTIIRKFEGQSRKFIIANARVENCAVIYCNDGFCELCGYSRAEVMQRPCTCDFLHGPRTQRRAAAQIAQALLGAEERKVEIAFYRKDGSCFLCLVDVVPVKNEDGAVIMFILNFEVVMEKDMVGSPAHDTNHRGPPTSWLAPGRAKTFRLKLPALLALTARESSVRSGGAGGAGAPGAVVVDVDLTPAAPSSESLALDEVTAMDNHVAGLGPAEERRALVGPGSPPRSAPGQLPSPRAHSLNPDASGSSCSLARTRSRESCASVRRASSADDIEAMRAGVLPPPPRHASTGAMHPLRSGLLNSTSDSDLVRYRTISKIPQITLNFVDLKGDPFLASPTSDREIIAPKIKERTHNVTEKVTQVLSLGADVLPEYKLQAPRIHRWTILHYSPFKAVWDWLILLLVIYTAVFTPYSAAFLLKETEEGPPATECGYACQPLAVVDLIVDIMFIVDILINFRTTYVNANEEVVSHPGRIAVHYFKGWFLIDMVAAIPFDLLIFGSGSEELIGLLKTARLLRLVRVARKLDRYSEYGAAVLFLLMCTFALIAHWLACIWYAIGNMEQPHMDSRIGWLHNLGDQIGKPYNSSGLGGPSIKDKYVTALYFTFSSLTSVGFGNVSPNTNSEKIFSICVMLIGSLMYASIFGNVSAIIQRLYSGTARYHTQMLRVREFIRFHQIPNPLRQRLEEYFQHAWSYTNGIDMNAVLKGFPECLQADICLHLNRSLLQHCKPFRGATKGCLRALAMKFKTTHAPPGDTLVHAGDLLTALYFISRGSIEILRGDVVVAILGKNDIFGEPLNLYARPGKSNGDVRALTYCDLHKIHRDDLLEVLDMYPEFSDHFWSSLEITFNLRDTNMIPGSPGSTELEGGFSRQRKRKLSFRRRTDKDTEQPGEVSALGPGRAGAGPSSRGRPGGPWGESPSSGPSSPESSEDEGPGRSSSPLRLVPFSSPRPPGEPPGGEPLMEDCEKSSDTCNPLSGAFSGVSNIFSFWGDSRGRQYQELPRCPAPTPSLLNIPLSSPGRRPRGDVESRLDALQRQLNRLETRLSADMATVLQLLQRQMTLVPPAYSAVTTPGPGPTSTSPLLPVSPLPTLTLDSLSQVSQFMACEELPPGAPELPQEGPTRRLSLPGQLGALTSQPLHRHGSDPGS

The molecule `O=C(Nc1ccc(OC(F)(F)F)cc1)c1ccc(=O)n(CCN2CCOCC2)c1` [Example 2, 1-(2-Morpholinoethyl)-6-oxo-N-[4-(trifluoromethoxy)phenyl]pyridine-3-carboxamide] displayed a solubility at 30 min in data set [1] of 215 µM (≈ 88.4 µg/mL). Same read-out and setting: under `Cn1ccc(-n2cc(C(=O)Nc3ccc(OC(F)(F)Cl)cc3)ccc2=O)n1` [Example 3, N-[4-(Chlorodifluoromethoxy)phenyl]-1-(1-methyl-1H-pyrazol-3-yl)-6-oxo-1,6-dihydropyridine-3-carboxamide] stands 140 µM (≈ 55.3 µg/mL). On the same count and under the same terms, under `O=C(Nc1ccc(OC(F)(F)Cl)cc1)c1ccc(=O)n([C@H]2CCOC2)c1` [Example 4, N-[4-[Chloro(difluoro)methoxy]phenyl]-6-oxo-1-[(3S)-tetrahydrofuran-3-yl]pyridine-3-carboxamide] stands 180 µM (≈ 69.3 µg/mL). The same measure, in the same setting: under `COc1ncc(-n2cc(C(=O)Nc3ccc(OC(F)(F)Cl)cc3)ccc2=O)cn1` [Example 12, N-[4-[Chloro(difluoro)methoxy]phenyl]-1-(2-methoxypyrimidin-5-yl)-6-oxo-pyridine-3-carboxamide] stands 140 µM (≈ 59.2 µg/mL); under `CN1CC[C@@H](n2cc(C(=O)Nc3ccc(OC(F)(F)Cl)cc3)ccc2=O)C1` [Example 16, N-[4-[Chloro(difluoro)methoxy]phenyl]-1-[(3R)-1-methylpyrrolidin-3-yl]-6-oxo-pyridine-3-carboxamide], 180 µM (≈ 71.6 µg/mL). Regarding `Cc1c(-n2cc(C(=O)Nc3ccc(OC(F)(F)Cl)cc3)ccc2=O)cnn1C` [Example 18, N-[4-[Chloro(difluoro)methoxy]phenyl]-1-(1,5-dimethylpyrazol-4-yl)-6-oxo-pyridine-3-carboxamide], the solubility at 30 min in data set [1] is 200 µM (≈ 81.8 µg/mL). This molecule also gave an IC50 on hERG channel of more than 10 µM. For `N#Cc1cccc(-n2cc(C(=O)Nc3ccc(OC(F)(F)Cl)cc3)ccc2=O)c1` [Example 20, N-[4-(Chlorodifluoromethoxy)phenyl]-1-(3-cyanophenyl)-6-oxo-1,6-dihydropyridine-3-carboxamide], the solubility at 30 min in data set [1] stood at 100 µM (≈ 41.6 µg/mL). The same measure, in the same setting: with `Cn1nccc1-n1cc(C(=O)Nc2ccc(OC(F)(F)Cl)cc2)ccc1=O` [Example 25, N-[4-(Chlorodifluoromethoxy)phenyl]-1-(1-methyl-1H-pyrazol-5-yl)-6-oxo-1,6-dihydropyridine-3-carboxamide] the figure was 170 µM (≈ 67.1 µg/mL).

As to `Cn1cc(C(=O)Nc2ccc(OC(F)(F)F)cc2)ccc1=O` [Example 26, 1-Methyl-6-oxo-N-[4-(trifluoromethoxy)phenyl]pyridine-3-carboxamide], the IC50 against hERG channel was more than 10 µM. In the case of `O=C(Nc1ccc(OC(F)(F)Cl)cc1)c1ccc(=O)n(-c2cnn(C(F)F)c2)c1` [Example 27, N-[4-(Chlorodifluoromethoxy)phenyl]-1-[1-(difluoromethyl)-1H-pyrazol-4-yl]-6-oxo-1,6-dihydropyridine-3-carboxamide], in data set [1], the solubility at 30 min is 100 µM (≈ 43.1 µg/mL). On the same count and under the same terms, under `Cn1ncc(-n2cc(C(=O)Nc3ccc(OC(F)(F)Cl)cc3)ccc2=O)c1Cl` [Example 30, 1-(5-Chloro-1-methyl-1H-pyrazol-4-yl)-N-[4-(chlorodifluoromethoxy)phenyl]-6-oxo-1,6-dihydropyridine-3-carboxamide] stands 140 µM (≈ 60.1 µg/mL).

On to `N#Cc1cncc(-n2cc(C(=O)Nc3ccc(OC(F)(F)Cl)cc3)ccc2=O)c1` [Example 55, N-[4-[Chloro(difluoro)methoxy]phenyl]-1-(5-cyano-3-pyridyl)-6-oxo-pyridine-3-carboxamide], for which the solubility at 30 min in data set [1] stood at 150 µM (≈ 62.5 µg/mL). `Cc1cncc(-n2cc(C(=O)Nc3ccc(OC(F)(F)Cl)cc3)ccc2=O)c1` [Example 57, N-[4-[Chloro(difluoro)methoxy]phenyl]-1-(5-methyl-3-pyridyl)-6-oxo-pyridine-3-carboxamide]: the solubility at 30 min in data set [1] worked out at 170 µM (≈ 69 µg/mL). Still for that read-out and setting: under `COc1cc(C(=O)Nc2ccc(OC(F)(F)Cl)cc2)cn(-c2cncnc2)c1=O` [Example 58, N-[4-[Chloro(difluoro)methoxy]phenyl]-5-methoxy-6-oxo-1-pyrimidin-5-yl-pyridine-3-carboxamide] stands 180 µM (≈ 76.1 µg/mL); under `Cc1cc(C(=O)Nc2ccc(OC(F)(F)Cl)cc2)cn(-c2cncnc2)c1=O` [Example 59, N-[4-[Chloro(difluoro)methoxy]phenyl]-5-methyl-6-oxo-1-pyrimidin-5-yl-pyridine-3-carboxamide], 190 µM (≈ 77.3 µg/mL); under `O=C(Nc1ccc(OC(F)(F)Cl)cc1)c1cc(N2CCOCC2)c(=O)n(-c2cncnc2)c1` [Example 60, N-[4-(Chlorodifluoromethoxy)phenyl]-5-(morpholin-4-yl)-6-oxo-1-(pyrimidin-5-yl)-1,6-dihydropyridine-3-carboxamide], 210 µM (≈ 100 µg/mL).

For `Cn1cc2ncc(-n3cc(C(=O)Nc4ccc(OC(F)(F)Cl)cc4)ccc3=O)cc2n1` [Example 71, N-[4-(Chlorodifluoromethoxy)phenyl]-1-{2-methyl-2H-pyrazolo[4,3-b]pyridin-6-yl}-6-oxo-1,6-dihydropyridine-3-carboxamide], the solubility at 30 min in data set [1] was 110 µM (≈ 49 µg/mL). Regarding `Cn1cc(C(=O)Nc2ccc(OC(F)(F)Cl)cc2)cc(-c2cncnc2)c1=O` [Example 82, N-[4-(Chlorodifluoromethoxy)phenyl]-1-methyl-6-oxo-5-(pyrimidin-5-yl)-1,6-dihydropyridine-3-carboxamide], the solubility at 30 min in data set [1] turned out to be 170 µM (≈ 69.2 µg/mL). Besides, the IC50 on hERG channel is more than 10 µM. As for `O=C(Nc1ccc(OC(F)(F)Cl)cc1)c1cccc(-c2cncnc2)c1` [Ref. ex. 2, N-[4-[Chloro(difluoro)methoxy]phenyl]-3-pyrimidin-5-ylbenzamide, reference compound], the solubility at 30 min in data set [1] came out at 9 µM (≈ 3.38 µg/mL). Also, at hERG channel, 1.9 µM corresponded to half-maximal inhibition (IC50). With `Cc1ccc(C(=O)Nc2ccc(OC(F)(F)F)cc2)cc1-c1cccnc1` [Ref. ex. 3, 4-Methyl-3-(3-pyridyl)-N-[4-(trifluoromethoxy)phenyl]benzamide, reference compound], in data set [1], the solubility at 30 min turned out to be 56 µM (≈ 20.9 µg/mL). The molecule also yielded an IC50 on hERG channel of 2.5 µM.

The values are drawn from patent publication US20230002346A1, “NEW COMPOUNDS AND METHODS” (BenevolentAl Bio Limited, priority 2019, published 2023).
